# Patent US20040038950A1, “Pharmaceutical composition for treating IL-1 related diseases or disorders” (priority 2002, published 2004)
# Assays:
# type II collagen mRNA = experiment: Osteoarthritic rabbit model (ACLT), intraarticular injection, RT-PCR of type II collagen; format: in vivo; details: rabbit ACLT knee, intraarticular once a week for 5 weeks
# Experimental: Mature New Zealand White rabbits underwent bilateral anterior cruciate ligament transection (ACLT). ACLT was performed using a medial arthrotomy method. Postoperatively the animals were permitted cage (60 cm×60 cm×40 cm) activity without immobilization. The right knees received via intraartiticular injection DHEA, DHEA-pyruvate or DHEA+HA, 4 weeks after ACLT and once a week for 5 weeks. The left knees received 0.3 ml of intraarticular injection with control solution (carrier solution). After 9 weeks from ACLT, the animas were sacrificed.
# Synovium (entire tissue) around the infrapatellar fat pads and cartilage tissue from the femoral condyle and the tibial plateau were harvested. The subsequent experimental procedure was the same as described in Test Example IV.
# [1] = system: (IL-1β)-induced iNOS mRNA; experiment: (IL-1β)-induced iNOS gene expression in chondrocytes; format: cell-based, human; details: 10, 50, 100 μM with IL-1β, 72 hr
# Experimental: (§1) Sixteen hours prior to a treatment, the complete culture medium was replaced with a serum-free medium. Chondrocyte alginate bead cultures were then treated with IL-1β ([…], (Calbiochem) and DHEA (0, 10, 50 or 100 μM) for 3 days.
# (§2) Total RNA from chondrocytes was extracted using RNeasy Mini Kit (QIAGEN). Reverse transcription from 1 μg of total RNA was conducted using First Strand cDNA Synthesis Kit (MBI Fermentas) according to manufacturer's recommendation with random hexamers. The resulting cDNA was then amplified by polymerase chain reaction using AccuPower PCR Premix (Bioneer, Korea) in a final volume of 20 μl using three thermocycler temperatures (30 sec at […], 30 sec at 60° C., and 30 sec at […]). All reactions were determined to be in the linear range of amplification with the cycle number ranging from 14 to 30. The PCR products were analyzed by separation on a 2% agarose gel followed by ethidium bromide staining. Following electrophoresis, photographs were taken and analyzed using a densitometric program (TINA; Raytest Isotopenmeβgerate, Germany). Integrated density values for the genes in question were then normalized to the glyceraldehyde-3-phosphate dehydrogenase (GAPDH) values for a semiquantitative assessment. After normalizing with respect to GAPDH, percentage increase or decrease was determined. Each experiment was repeated at least three times. […]
# human chondrocyte = experiment: GAG assay (35SO4-labeled proteoglycan synthesis) in chondrocyte alginate culture; format: cell-based; details: DHEA present in chondrocyte cultures, same time period
# Experimental: Chondrocytes were isolated from the knee joint of patient undergoing a knee replacement due to osteoarthritis. Cartilage was digested with 0.2% protease Type XIV (Sigma) for 1 hour, followed by 3-hour incubation with 0.2% collagenase Type IA (Sigma) at 37° C. Following the incubation, the undigested cartilage fragments were removed using a 70 μm Nylon sieve. Chondrocytes were washed with DPBS and maintained in monolayer culture for 7 days in Dulbecco's modified Eagle's medium (DMEM; Life Technologies Inc.) which contained 10% fetal bovine serum (FBS; Life Technologies), 100 units/ml penicillin-streptomycin (Life Technologies) and 25 μg/ml L-ascorbic acid (Sigma). All experiments were performed with primary or first passage cells. The preparation of chondrocytes in alginate beads was carried out with 4×10^6 cells per 1 ml of alginate. […]
# For cell proliferation, [^3H]thymidine assay was performed on a 96-well plate (Nunc) with one alginate bead per well. […] After collecting the cells using a cell harvester (Wallac), [^3H]thymidine uptake was quantitated by measuring β emission on a β-counter (Wallac). […] The ^35SO4-labeled proteoglycan content was measured by a liquid scintillation counter (Wallac). The total cellular DNA was determined by Indole assay.
# type I collagen mRNA = experiment: RT-PCR of type I collagen mRNA in chondrocytes; format: cell-based, human; details: 100 μM
# Experimental: (§3) Chondrocytes were isolated from the knee joint of patient undergoing a knee replacement due to osteoarthritis. Cartilage was digested with 0.2% protease Type XIV (Sigma) for 1 hour, followed by 3-hour incubation with 0.2% collagenase Type IA (Sigma) at 37° C. Following the incubation, the undigested cartilage fragments were removed using a 70 μm Nylon sieve. Chondrocytes were washed with DPBS and maintained in monolayer culture for 7 days in Dulbecco's modified Eagle's medium (DMEM; Life Technologies Inc.) which contained 10% fetal bovine serum (FBS; Life Technologies), 100 units/ml penicillin-streptomycin (Life Technologies) and 25 μg/ml L-ascorbic acid (Sigma). All experiments were performed with primary or first passage cells. The preparation of chondrocytes in alginate beads was carried out with 4×10^6 cells per 1 ml of alginate. Alginate cultures were maintained for 7 days at 37° C., 5% CO2 and 95% humidity and incubated with various concentrations of DHEA (0, 10, 50 or 100 μM) for a varing period of time. DHEA was purchased from Sigma and used after dissolving either in ethanol or dimethyl sulfoxide (DMSO). After a desired incubation period, cells were harvested by solubilizing the alginate beads in citrate buffer (55 mM sodium citrate, 0.15 M NaCl, pH 7.0) for 10 min at 37° C. and by centrifugation (300 g, 5 min).
# Total RNA from chondrocytes was extracted using RNeasy Mini Kit (QIAGEN). Reverse transcription from 1 μg of total RNA was conducted using First Strand cDNA Synthesis Kit (MBI Fermentas) according to manufacturer's recommendation with random hexamers. […] All reactions were determined to be in the linear range of amplification with the cycle number ranging from 14 to 30. The PCR products were analyzed by separation on a 2% agarose gel followed by ethidium bromide staining. Following electrophoresis, photographs were taken and analyzed using a densitometric program (TINA; Raytest Isotopenmeβgerate, Germany). […] After normalizing with respect to GAPDH, percentage increase or decrease was determined. […]
# TIMP-1 mRNA = experiment: RT-PCR of TIMP-1 mRNA in chondrocytes; format: cell-based, human
# Experimental: as §3, §2
# [2] = system: (IL-1β)-induced MMP-3 mRNA; experiment: (IL-1β)-induced MMP-3 mRNA expression in chondrocytes, RT-PCR; format: cell-based, human; details: 100 μM DHEA with IL-1β, 72 hr
# Experimental: as §1, §2
# TIMP-1 = experiment: Western blot of TIMP-1 in chondrocyte lysates; format: cell-based, human; details: 0, 10 or 100 μ DHEA, three days
# Experimental: as §3, with “After a desired incubation period, cells were harvested by solubilizing the alginate beads in citrate buffer (55 mM sodium citrate, 0.15 M NaCl, pH 7.0) for 10 min at 37° C. and by centrifugation (300 g, 5 min).” left out
# To investigate the effect of DHEA on the protein concentration, Western blot analysis was performed. […] Protein concentration of the supernatant was determined by Bio-Rad protein assay (Bio-Rad, USA) using bovine serum albumin (BSA) as a standard. […]
compound,measurement,setting,value
"C[C@]12CC[C@H](O)CC1=CC[C@@H]1[C@@H]2CC[C@]2(C)C(=O)CC[C@@H]12 [DHEA, dehyroepiandrosterone]",expression of type II collagen,type II collagen mRNA,increased
same,(IL-1β)-induced up-regulation of iNOS mRNA,[1],suppressed
same,rate of proteoglycan synthesis,human chondrocyte,remained unchanged
same,"type I collagen mRNA, maximal inhibition",type I collagen mRNA; 72 hours,28%
same,"type I collagen production, reduced by",type I collagen mRNA; after 24-72 hr of culture,less than 50%
same,type I collagen mRNA expression,type I collagen mRNA; after 72 hr,markly inhibited
same,"TIMP-1 mRNA expression, maximum rate of enhancement","TIMP-1 mRNA; 50 μM, 72 hours",120%
same,"TIMP-1 mRNA expression, up-regulation","TIMP-1 mRNA; 100 μM, after 72 hr",129%
same,TIMP-1 mRNA expression,"TIMP-1 mRNA; 100 μM, up to 48 hr",unaffected
same,TIMP-1 mRNA enhancement effect,TIMP-1 mRNA; DHEA concentration above 100 μM,diminished
same,"(IL-1β)-induced expression of MMP-3 mRNA, inhibition",[2],73%
same,translational level of mature TIMP-1 (Western blot),TIMP-1,increased with increasing concentration of DHEA
